Assays:
Assay in all cases: KINOMEscan competition binding
Conditions in all cases: compound 1.0 µM
MAP3K13 (human) = MAP3K13 (human) (UniProt O43283)
RET (human) = RET (human) (UniProt P07949)
AURKC (human) = AURKC (human) (UniProt Q9UQB9)
IKBKE (human) = IKBKE (human) (UniProt Q14164)
IGF1R (human) = IGF1R (human) (UniProt P08069)
DYRK1B (human) = DYRK1B (human) (UniProt Q9Y463)
PTK2 (human) = PTK2 (human) (UniProt Q05397)
MAPK3 (human) = MAPK3 (human) (UniProt P27361)
TGFBR1 (human) = TGFBR1 (human) (UniProt P36897)
Chain of TGFBR1 (human) (P36897 whole entry, looked up): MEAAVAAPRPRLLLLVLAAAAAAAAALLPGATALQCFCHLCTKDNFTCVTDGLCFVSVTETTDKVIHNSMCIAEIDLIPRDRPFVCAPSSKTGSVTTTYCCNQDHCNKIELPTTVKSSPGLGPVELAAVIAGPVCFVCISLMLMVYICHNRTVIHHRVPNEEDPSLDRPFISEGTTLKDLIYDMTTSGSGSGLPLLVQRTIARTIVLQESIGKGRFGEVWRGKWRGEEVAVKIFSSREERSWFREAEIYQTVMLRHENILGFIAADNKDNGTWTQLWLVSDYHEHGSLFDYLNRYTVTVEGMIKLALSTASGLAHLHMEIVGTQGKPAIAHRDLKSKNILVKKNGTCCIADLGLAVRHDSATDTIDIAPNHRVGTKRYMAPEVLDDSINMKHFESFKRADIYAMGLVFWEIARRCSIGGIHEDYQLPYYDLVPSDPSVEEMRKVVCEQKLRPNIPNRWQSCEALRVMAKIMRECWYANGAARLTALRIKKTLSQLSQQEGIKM

SLK (human) = SLK (human) (UniProt Q9H2G2)
[1] = system: BRAF (human), P15056 [V600E]
RPS6KA5 KD2 (human) = RPS6KA5 KD2 (human) (UniProt O75582)
NIM1 (human) = NIM1 (human) (UniProt Q8IY84)
GRK4 (human) = GRK4 (human) (UniProt P32298)
STK32C (human) = STK32C (human) (UniProt Q86UX6)
MARK3 (human) = MARK3 (human) (UniProt P27448)
TAOK2 (human) = TAOK2 (human) (UniProt Q9UL54)
Chain of TAOK2 (human) (Q9UL54 whole entry, looked up): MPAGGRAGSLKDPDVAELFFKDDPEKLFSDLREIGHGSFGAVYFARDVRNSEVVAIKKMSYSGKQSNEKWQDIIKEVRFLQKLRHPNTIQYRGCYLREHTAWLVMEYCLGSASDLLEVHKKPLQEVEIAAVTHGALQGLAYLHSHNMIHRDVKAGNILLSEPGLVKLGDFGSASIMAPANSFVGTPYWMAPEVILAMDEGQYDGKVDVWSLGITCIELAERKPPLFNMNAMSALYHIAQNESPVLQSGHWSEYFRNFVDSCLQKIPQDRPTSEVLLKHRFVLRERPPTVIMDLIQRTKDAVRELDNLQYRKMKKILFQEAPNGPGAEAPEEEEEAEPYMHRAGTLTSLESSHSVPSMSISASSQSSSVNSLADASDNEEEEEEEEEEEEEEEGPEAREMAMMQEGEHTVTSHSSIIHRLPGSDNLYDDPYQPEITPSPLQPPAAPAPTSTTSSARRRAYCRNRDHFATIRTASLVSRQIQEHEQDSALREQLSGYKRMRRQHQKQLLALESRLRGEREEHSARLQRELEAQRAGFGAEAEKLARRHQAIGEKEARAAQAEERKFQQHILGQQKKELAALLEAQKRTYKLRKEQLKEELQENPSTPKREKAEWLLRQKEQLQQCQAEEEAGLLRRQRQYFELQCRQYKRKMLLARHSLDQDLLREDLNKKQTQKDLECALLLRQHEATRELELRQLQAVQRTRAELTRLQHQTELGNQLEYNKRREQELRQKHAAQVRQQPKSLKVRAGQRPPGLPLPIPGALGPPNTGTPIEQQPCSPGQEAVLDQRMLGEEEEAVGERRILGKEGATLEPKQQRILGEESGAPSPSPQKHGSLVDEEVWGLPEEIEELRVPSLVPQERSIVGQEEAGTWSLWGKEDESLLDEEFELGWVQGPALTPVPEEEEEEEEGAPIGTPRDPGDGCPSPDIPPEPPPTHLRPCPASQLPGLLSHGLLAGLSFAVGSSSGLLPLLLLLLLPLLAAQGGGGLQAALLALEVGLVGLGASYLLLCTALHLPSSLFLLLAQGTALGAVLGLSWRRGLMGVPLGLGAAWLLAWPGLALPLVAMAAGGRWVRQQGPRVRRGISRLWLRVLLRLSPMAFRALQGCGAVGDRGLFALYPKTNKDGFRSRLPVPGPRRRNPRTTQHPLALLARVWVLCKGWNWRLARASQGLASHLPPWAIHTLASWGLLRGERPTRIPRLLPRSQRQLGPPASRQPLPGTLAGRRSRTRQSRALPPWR

SNRK (human) = SNRK (human) (UniProt Q9NRH2)
SRPK1 (human) = SRPK1 (human) (UniProt Q96SB4)
STK10 (human) = STK10 (human) (UniProt O94804)
[2] = system: EGFR (human), P00533 [A750P; 747-749 del]
MAP2K7 (human) = MAP2K7 (human) (UniProt O14733)
INSRR (human) = INSRR (human) (UniProt P14616)
ANKK1 (human) = ANKK1 (human) (UniProt Q8NFD2)
NUAK1 (human) = NUAK1 (human) (UniProt O60285)
Chain of NUAK1 (human) (O60285 whole entry, looked up): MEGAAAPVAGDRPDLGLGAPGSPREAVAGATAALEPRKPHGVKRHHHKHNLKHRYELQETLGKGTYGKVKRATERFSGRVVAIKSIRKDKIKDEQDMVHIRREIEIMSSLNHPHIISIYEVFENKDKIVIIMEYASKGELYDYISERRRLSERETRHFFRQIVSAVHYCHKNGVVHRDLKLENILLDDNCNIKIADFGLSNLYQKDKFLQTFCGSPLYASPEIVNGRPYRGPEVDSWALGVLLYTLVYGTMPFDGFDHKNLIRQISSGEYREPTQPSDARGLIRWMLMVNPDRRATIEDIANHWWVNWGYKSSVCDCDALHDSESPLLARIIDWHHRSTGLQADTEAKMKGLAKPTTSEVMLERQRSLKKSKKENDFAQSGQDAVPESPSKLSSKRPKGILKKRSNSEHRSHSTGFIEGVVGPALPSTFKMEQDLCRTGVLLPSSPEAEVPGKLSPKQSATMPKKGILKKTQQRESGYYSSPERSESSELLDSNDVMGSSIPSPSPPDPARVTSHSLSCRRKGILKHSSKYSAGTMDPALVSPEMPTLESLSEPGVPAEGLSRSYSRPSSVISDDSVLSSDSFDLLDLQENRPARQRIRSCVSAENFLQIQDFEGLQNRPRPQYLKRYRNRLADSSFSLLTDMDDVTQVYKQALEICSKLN

CSF1R (human) = CSF1R (human) (UniProt P07333)
MAP3K1 (human) = MAP3K1 (human) (UniProt Q13233)
HIPK3 (human) = HIPK3 (human) (UniProt Q9H422)
PIK3C2B (human) = PIK3C2B (human) (UniProt O00750)
CDK15 (human) = CDK15 (human) (UniProt Q96Q40)
PIP5K1A (human) = PIP5K1A (human) (UniProt Q99755)
TAOK3 (human) = TAOK3 (human) (UniProt Q9H2K8)
Chain of TAOK3 (human) (Q9H2K8 whole entry, looked up): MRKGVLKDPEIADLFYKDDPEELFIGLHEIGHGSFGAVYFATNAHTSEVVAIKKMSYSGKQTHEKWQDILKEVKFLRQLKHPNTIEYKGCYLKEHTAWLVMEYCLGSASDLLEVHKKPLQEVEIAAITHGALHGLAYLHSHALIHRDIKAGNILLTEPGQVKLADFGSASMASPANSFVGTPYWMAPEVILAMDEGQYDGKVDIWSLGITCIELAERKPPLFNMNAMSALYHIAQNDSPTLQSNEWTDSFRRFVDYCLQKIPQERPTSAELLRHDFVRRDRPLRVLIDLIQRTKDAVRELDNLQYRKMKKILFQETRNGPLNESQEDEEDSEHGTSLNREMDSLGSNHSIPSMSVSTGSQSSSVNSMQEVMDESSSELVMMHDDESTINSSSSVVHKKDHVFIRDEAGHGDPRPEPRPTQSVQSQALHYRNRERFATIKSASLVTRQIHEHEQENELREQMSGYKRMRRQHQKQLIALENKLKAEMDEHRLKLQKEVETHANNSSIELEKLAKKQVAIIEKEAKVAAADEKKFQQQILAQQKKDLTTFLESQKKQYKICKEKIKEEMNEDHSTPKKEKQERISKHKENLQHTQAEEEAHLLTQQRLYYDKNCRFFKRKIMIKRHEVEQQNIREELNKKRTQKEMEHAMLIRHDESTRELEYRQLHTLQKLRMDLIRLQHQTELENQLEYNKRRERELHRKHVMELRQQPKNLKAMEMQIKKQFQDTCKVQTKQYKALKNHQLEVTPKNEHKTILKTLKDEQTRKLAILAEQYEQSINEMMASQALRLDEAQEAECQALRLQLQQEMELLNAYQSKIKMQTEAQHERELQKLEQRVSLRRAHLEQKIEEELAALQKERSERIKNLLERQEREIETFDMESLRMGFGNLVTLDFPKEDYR

PIM3 (human) = PIM3 (human) (UniProt Q86V86)
[3] = system: EGFR (human), P00533 [T790M]
HIPK4 (human) = HIPK4 (human) (UniProt Q8NE63)
ACVR1B (human) = ACVR1B (human) (UniProt P36896)
ROCK1 (human) = ROCK1 (human) (UniProt Q13464)
NEK5 (human) = NEK5 (human) (UniProt Q6P3R8)
Chain of NEK5 (human) (Q6P3R8 whole entry, looked up): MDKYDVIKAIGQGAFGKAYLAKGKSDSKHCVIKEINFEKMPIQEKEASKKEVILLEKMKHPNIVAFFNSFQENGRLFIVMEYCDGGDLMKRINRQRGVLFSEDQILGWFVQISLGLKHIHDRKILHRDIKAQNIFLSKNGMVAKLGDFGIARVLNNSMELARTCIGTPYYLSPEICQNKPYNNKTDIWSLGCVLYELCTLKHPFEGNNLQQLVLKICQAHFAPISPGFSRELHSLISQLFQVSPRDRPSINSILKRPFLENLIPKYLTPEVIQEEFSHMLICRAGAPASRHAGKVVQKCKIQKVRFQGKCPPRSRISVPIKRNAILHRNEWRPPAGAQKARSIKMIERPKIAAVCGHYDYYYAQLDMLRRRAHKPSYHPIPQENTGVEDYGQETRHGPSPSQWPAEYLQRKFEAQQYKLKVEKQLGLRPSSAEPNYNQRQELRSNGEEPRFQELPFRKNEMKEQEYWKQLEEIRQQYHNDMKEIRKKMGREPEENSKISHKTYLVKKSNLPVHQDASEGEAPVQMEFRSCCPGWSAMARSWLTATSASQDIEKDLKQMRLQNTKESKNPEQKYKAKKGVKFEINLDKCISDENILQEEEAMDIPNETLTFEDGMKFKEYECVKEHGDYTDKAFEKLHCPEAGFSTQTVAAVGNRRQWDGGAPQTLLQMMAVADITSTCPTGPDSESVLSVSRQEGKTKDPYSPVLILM

ERBB4 (human) = ERBB4 (human) (UniProt Q15303)
PI4KB (human) = PI4KB (human) (UniProt Q9UBF8)
EPHA6 (human) = EPHA6 (human) (UniProt Q9UF33)
FLT1 (human) = FLT1 (human) (UniProt P17948)
[4] = system: MET (human), P08581 [Y1235D]

Chain of MAP3K13 (human) (O43283 whole entry, looked up): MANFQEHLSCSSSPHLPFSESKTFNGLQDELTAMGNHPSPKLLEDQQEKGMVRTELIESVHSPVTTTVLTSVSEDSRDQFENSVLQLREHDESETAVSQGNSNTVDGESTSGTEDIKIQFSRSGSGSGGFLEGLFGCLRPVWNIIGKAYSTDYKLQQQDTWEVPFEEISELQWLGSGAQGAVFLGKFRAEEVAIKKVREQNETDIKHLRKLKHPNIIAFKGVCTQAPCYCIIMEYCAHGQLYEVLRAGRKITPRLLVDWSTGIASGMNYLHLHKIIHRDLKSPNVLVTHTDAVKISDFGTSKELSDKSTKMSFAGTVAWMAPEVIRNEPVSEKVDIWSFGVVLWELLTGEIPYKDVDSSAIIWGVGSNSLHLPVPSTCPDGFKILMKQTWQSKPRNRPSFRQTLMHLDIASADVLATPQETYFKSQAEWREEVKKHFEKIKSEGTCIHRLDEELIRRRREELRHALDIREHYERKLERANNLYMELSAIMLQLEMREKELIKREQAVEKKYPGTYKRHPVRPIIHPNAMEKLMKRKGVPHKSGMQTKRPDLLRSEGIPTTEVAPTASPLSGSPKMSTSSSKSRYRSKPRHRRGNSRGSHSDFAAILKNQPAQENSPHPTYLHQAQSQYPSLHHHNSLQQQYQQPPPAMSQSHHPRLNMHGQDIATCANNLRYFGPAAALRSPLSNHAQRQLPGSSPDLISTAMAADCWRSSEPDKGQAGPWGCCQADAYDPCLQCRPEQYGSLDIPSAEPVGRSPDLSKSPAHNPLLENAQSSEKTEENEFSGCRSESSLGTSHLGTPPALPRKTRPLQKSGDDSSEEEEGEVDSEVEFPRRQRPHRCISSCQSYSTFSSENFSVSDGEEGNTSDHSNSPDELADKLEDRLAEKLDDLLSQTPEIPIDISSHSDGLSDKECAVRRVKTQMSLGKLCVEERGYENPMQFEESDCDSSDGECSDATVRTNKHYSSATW

Cc1cc(NC(=O)c2cccc(NC(=O)/C=C/CN(C)C)c2)ccc1Nc1nccc(-c2cccnc2)n1
kinase still bound, per cent of control (MAP3K13 (human)): 93%
kinase still bound, per cent of control (RET (human)): 100%
kinase still bound, per cent of control (AURKC (human)): 95%
kinase still bound, per cent of control (IKBKE (human)): 91%
kinase still bound, per cent of control (IGF1R (human)): 93%
kinase still bound, per cent of control (DYRK1B (human)): 100%
kinase still bound, per cent of control (PTK2 (human)): 11%
kinase still bound, per cent of control (MAPK3 (human)): 100%
kinase still bound, per cent of control (TGFBR1 (human)): 89%
kinase still bound, per cent of control (SLK (human)): 100%
kinase still bound, per cent of control [1]: 100%
kinase still bound, per cent of control (RPS6KA5 KD2 (human)): 97%
kinase still bound, per cent of control (NIM1 (human)): 100%
kinase still bound, per cent of control (GRK4 (human)): 96%
kinase still bound, per cent of control (STK32C (human)): 95%
kinase still bound, per cent of control (MARK3 (human)): 100%
kinase still bound, per cent of control (TAOK2 (human)): 73%
kinase still bound, per cent of control (SNRK (human)): 100%
kinase still bound, per cent of control (SRPK1 (human)): 99%
kinase still bound, per cent of control (STK10 (human)): 100%
kinase still bound, per cent of control [2]: 84%
kinase still bound, per cent of control (MAP2K7 (human)): 59%
kinase still bound, per cent of control (INSRR (human)): 100%
kinase still bound, per cent of control (ANKK1 (human)): 75%
kinase still bound, per cent of control (NUAK1 (human)): 100%
kinase still bound, per cent of control (CSF1R (human)): 8.6%
kinase still bound, per cent of control (MAP3K1 (human)): 100%
kinase still bound, per cent of control (HIPK3 (human)): 100%
kinase still bound, per cent of control (PIK3C2B (human)): 100%
kinase still bound, per cent of control (CDK15 (human)): 100%
kinase still bound, per cent of control (PIP5K1A (human)): 75%
kinase still bound, per cent of control (TAOK3 (human)): 66%
kinase still bound, per cent of control (PIM3 (human)): 56%
kinase still bound, per cent of control [3]: 100%
kinase still bound, per cent of control (HIPK4 (human)): 4%
kinase still bound, per cent of control (ACVR1B (human)): 88%
kinase still bound, per cent of control (ROCK1 (human)): 63%
kinase still bound, per cent of control (NEK5 (human)): 92%
kinase still bound, per cent of control (ERBB4 (human)): 96%
kinase still bound, per cent of control (PI4KB (human)): 82%
kinase still bound, per cent of control (EPHA6 (human)): 100%
kinase still bound, per cent of control (FLT1 (human)): 100%
kinase still bound, per cent of control [4]: 100%
